Legend:
Assay in all cases: Cell viability assay (CellTiter-Blue/CellTiter-Glow)
Format in all cases: cell-based
CHP-134 = conditions: Homo sapiens; brain carcinoma cell line CHP-134; absolute IC50; 72 h
Summary of the method: (§1)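 Readout: CellTiter-Blue (ex 570/em 600 nm) or CellTiter-Glo luminescence after 72 h compound exposure. 5–6 half-log concentrations, top 30 or 100 μM, duplicate/triplicate, DMSO <0.3%. IC50 = absolute, 4-parameter fit at T/C=50%.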

Panc-1 = conditions: Homo sapiens; pancreatic carcinoma cell line Panc-1; absolute IC50; 72 h
Summary of the method: as §1

U-251 = conditions: Homo sapiens; brain carcinoma cell line U-251; absolute IC50; 72 h
Summary of the method: as §1

U-118 = conditions: brain carcinoma cell line U-118; absolute IC50; 72 h
Summary of the method: as §1

BT-474 = conditions: Homo sapiens; breast carcinoma cell line BT-474; absolute IC50; 72 h
Summary of the method: as §1

MDA-MB-436 = conditions: Homo sapiens; breast carcinoma cell line MDA-MB-436; absolute IC50; 72 h
Summary of the method: as §1

SH-SY-5Y = conditions: Homo sapiens, SH-SY5Y; brain carcinoma cell line SH-SY-5Y; absolute IC50; 72 h
Summary of the method: as §1

MDA-MB-231 = conditions: Homo sapiens; breast carcinoma cell line MDA-MB-231; absolute IC50; 72 h
Summary of the method: as §1

ZR-75-1 = conditions: Homo sapiens; breast carcinoma cell line ZR-75-1; absolute IC50; 72 h
Summary of the method: as §1

HCC1806 = conditions: Homo sapiens; breast carcinoma cell line HCC1806; absolute IC50; 72 h
Summary of the method: as §1

T47D = conditions: Homo sapiens; breast carcinoma cell line T47D; absolute IC50; 72 h
Summary of the method: as §1

SK-N-AS = conditions: Homo sapiens; brain carcinoma cell line SK-N-AS; absolute IC50; 72 h
Summary of the method: as §1

parental H69 cells = conditions: Homo sapiens, NCI-H69; SCLC parental H69 cells
Summary of the method: as §1

OVXF 899 = conditions: ovarian carcinoma cell line OVXF 899; absolute IC50; 72 h
Summary of the method: as §1

Compound	IC50 (CHP-134)	IC50 (Panc-1)	IC50 (U-251)	IC50 (U-118)	IC50 (BT-474)	IC50 (MDA-MB-436)	IC50 (SH-SY-5Y)	IC50 (MDA-MB-231)	IC50 (ZR-75-1)	IC50 (HCC1806)	IC50 (T47D)	IC50 (SK-N-AS)	IC50 (parental H69 cells)	IC50 (OVXF 899)
O=c1cc(-c2ccc(CCCC[P+](c3ccccc3)(c3ccccc3)c3ccccc3)cc2)oc2c3c(ccc12)OCO3.[Br-] [SND123, 4-[4-(6-oxo-[1,3]dioxolo[4,5-h]chromen-8-yl)phenyl]butyl-triphenylphosphonium bromide]	1.8 µM	2.32 µM	1.87 µM	8.3 µM	1.6 µM	2.3 µM	4.9 µM	2 µM	2.5 µM	2.3 µM	1.7 µM	3.5 µM	–	–
CCNC(=O)Oc1ccc2c(=O)cc(-c3ccc(CCCC[P+](c4ccccc4)(c4ccccc4)c4ccccc4)cc3)oc2c1O.[Br-] [SND126A, 4-[4-[7-(Ethylcarbamoyloxy)-8-hydroxy-4-oxo-chromen-2-yl]phenyl]butyltriphenylphosphonium bromide]	–	–	–	–	–	–	–	–	–	–	–	–	3.63 µM	17.6 µM

From patent US20240209011A1, “HETEROAROMATIC PHOSPHONIUM SALTS FOR TREATING CANCER” (FLORATEK PHARMA S.A., priority 2021, published 2024)
